Test results: patent US8071645B2, “Systems and methods for treating human inflammatory and proliferative diseases and wounds, with fatty acid metabolism inhibitors and/or glycolytic inhibitors” (The Regents of the University of Colorado, priority 2003, dated 2011)

Key:
Format in all cases: cell-based
[1] = system: human leukemia HL60 cells; assay: DCFDA staining of HL60 cells; settings: 24 hours of incubation, FIG. 14
Procedure: (§1) Flow Cytometry. Cells were harvested, counted, and resuspended at 10^6 cells/100 μl of PBS containing 2.5% fetal calf serum in preparation for flow cytometric analysis. Cells were stained for intracellular H202 using 6-carboxy-2′,7′-dichlorodihydrofluorescein diacetate (DCF-DA, Molecular Probes, Eugene, Oreg.). Briefly, cells were incubated at 37° with 1 mM DCF-DA for 20 minutes, washed twice in PBS containing 2.5% fetal calf serum and analyzed flow cytometrically. Mitochondrial membrane potential was assessed using Mitotracker Red (CM-H2XROS, Molecular Probes, Eugene, Oreg.). The cells were resuspended in PBS containing 2.5% fetal calf serum containing a final concentration of 0.5 micromolar Mitotracker dye. The cells were incubated at 37° for 20 minutes, washed twice in PBS containing 2.5% fetal calf serum and analyzed flow cytometrically. Data were acquired on a Coulter Elite Epics or Excel flow cytometer (Coulter, Hialeah, Fla.) and analyzed with CellQuest software, (Becton Dickinson, San Jose, Calif.). […] Each sample population was classified for cell size (forward scatter) and complexity (side scatter), gated on a population of interest and evaluated using 5,000 cells. […]
The effects of etomoxir on human leukemia HL60 cells was determined. […]

[2] = system: B16F1 melanoma cells; assay: DCFDA staining (reactive oxygen species) of B16F1 melanoma cells; settings: 48 hours, FIG. 19
Procedure: Metabolic Activity Assay. Cells were prepared as previously described. The specific metabolic dye was added and mixed into the cell suspension. This plate was then placed into the 37° incubator for a 20-minute incubation. After incubation, the cells were centrifuged at 300×g for 5 minutes, and the supernatant was removed. The cells were then washed once with PBS/2.5% FBS and transferred into flow cytometric tubes containing 500 μL of PBS/2.5% FBS for analysis
5-(and -6)-Chloromethyl-2′,7′-dichlorodihydrofluorescein diacetate (CMH2DCFDA) (Molecular Probes). One vial of DCFda provides 10 tests and contains 50 μg. This is unstable and can't be stored. Therefore, each vial was opened and 43 μL of DMSO was added. […]
Geometric Mean Fluorescence. […] Once the stained sample was plotted against the control (isotype or unstained), geometric mean fluorescence values were obtained for both histogram peaks. The stained control sample value was subtracted from sample to identify the actual fluorescence of the stained sample over that of the control.
B16F1 melanoma cells of Example 12 were untreated or treated with etomoxir at the indicated concentrations for 48 hours. Cells were harvested, stained with DCFDA as described in Materials and Methods, and analyzed by flow cytometry. The value of DCFDA was then calculated as described in Materials and Methods.

[3] = system: cell surface Fas (CD95) on B16F1 melanoma cells; assay: cell surface Fas (CD95) expression on B16F1 melanoma cells; settings: 48 hours
Procedure: Cell Surface Staining. Non-permeabilized cells were stained with antibodies to the cell surface receptors Fas (CD95) (Pharmingen) or with antibodies to uncoupling proteins (anti-UCP2 antibody) (Alpha Diagnostic International). Antibodies for both the isotype control and actual stain were added to the cell suspension, mixed, and then placed on ice for and incubation of 25 minutes in the dark. Subsequently the cells were centrifuged at 300×g for 5 minutes and the supernatant removed. The cells were washed one time with 100 μL of PBS/2.5% FBS and then transferred into flow cytometric tubes containing 500 μL of PBS/2.5% FBS for analysis.
B16F1 melanoma cells were cultured at a concentration of 0.5 to 1 million cells per ml. Cells were harvested and analyzed by flow cytometry. Dot plots are shown in FIG. 15 as functions of live versus dead cells. Each dot on the dot plot represents one cell. Five thousand cells were assessed for forward scatter (FS), as a function of cell size, versus side scatter (SS), as a function of cellular granularity. […]
Referring to FIGS. 17 and 18, B16F1 melanoma cells of Example 12 were untreated or treated with etomoxir at the indicated concentrations for 48 hours. Cells were harvested, stained with fluorochrome conjugated anti-Fas antibody (Pharmingen) and analyzed by flow cytometry.

[4] = system: L1210 cells; assay: DCFDA staining (reactive intermediates) of L1210 cells; settings: 24 hours of incubation, FIG. 12A
Procedure: as §1, with “The cells were resuspended in PBS containing 2.5% fetal calf serum containing a final concentration of 0.5 micromolar Mitotracker dye.” left out
We measured the effects of etomoxir on metabolism by measuring mitochondrial membrane potential with a fluorescent dye (Mitotracker Red, Molecular Probes, Eugene, Oreg.) which fluoresces as a function of mitochondrial potential. […]

[5] = system: human leukemia RU937 cells; assay: mitochondrial membrane potential (MitoTracker) of RU937 cells; settings: 24 hours of incubation, FIG. 13
Procedure: as §1
The effects of etomoxir on human leukemia RU937 cells was determined. […]

## CCOC(=O)C1(CCCCCCOc2ccc(Cl)cc2)CO1 (stereo not drawn) [etomoxir, 2-(6-(4-chlorophenoxy)-hexyl)-oxirane-2-carboxylic acid ethyl ester]
[1]
  reactive oxygen intermediates (DCFDA staining): increases
[2]
  reactive oxygen species as measured by DCFDA: dose dependent increase
[3]; FIG. 17
  cell surface Fas expression, live cell population: dose dependent increase
[3]; FIG. 18
  cell surface Fas expression, dead cell population: dose dependent increase
[4]
  free radicals (reactive intermediates), DCFDA staining: increase
[5]
  levels of mitochondrial membrane potential (MitoTracker): increased
